Results as given in ChEMBL document CHEMBL1140081 (J Med Chem, 2008).

Legend:
[1] = Terminal half life in Sprague-Dawley rat at 3 mg/kg, iv; format: ADME, organism-based; design: dose 3 mg/kg, route intravenous; details: in vivo, read-out: beta t1/2 (converted)
[2] = system: Human immunodeficiency virus 1; experiment: Antiviral activity against HIV1 with integrase N155S mutation by single cycle infectivity assay in presence of 10%FBS; format: functional
[3] = system: Human immunodeficiency virus 1; experiment: Antiviral activity against HIV1 with integrase T125K/F121Y mutation by single cycle infectivity assay in presence of 10%FBS; format: functional
[4] = system: Human immunodeficiency virus 1; experiment: Antiviral activity against HIV1 3B in human MT4 cells in presence of 10% heat-inactivated fetal bovine serum; details: Human immunodeficiency virus 1, 3B, read-out: CIC95
[5] = Plasma clearance in Sprague-Dawley rat at 3 mg/kg, iv; format: ADME, organism-based; design: dose 3 mg/kg, route intravenous
[6] = Inhibition of HIV reverse transcriptase; design: species or system Human immunodeficiency virus
[7] = AUC in Sprague-Dawley rat at 100 mg/kg, po using 1% methyl cellulose as vehicle; format: ADME, organism-based; design: dose 100 mg/kg, route oral; details: in vivo
Cytochrome P450 2C9 = Cytochrome P450 2C9 (Homo sapiens, UniProt P11712); experiment: Inhibition of CYP2C9; format: ADME
Chain of Cytochrome P450 2C9 (P11712 whole entry): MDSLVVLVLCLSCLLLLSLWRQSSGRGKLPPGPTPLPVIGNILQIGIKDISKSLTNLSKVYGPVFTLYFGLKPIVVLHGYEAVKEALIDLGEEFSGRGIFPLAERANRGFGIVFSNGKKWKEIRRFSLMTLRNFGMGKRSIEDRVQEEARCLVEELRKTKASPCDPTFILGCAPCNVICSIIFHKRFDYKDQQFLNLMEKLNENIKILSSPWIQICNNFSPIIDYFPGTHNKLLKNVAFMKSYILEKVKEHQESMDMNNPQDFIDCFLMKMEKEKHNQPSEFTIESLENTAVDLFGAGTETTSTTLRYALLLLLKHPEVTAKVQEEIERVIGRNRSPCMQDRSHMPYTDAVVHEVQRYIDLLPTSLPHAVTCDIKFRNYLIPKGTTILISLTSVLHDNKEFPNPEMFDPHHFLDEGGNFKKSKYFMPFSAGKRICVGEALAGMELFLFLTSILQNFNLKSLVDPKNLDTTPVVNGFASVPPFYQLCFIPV

[8] = system: Human immunodeficiency virus 1; experiment: Antiviral activity against HIV1 with integrase T66I/M154 mutation by single cycle infectivity assay in presence of 10%FBS; format: functional
[9] = target: Voltage-gated inwardly rectifying potassium channel KCNH2 (Homo sapiens, UniProt Q12809); experiment: Binding affinity to human ERG
Chain of Voltage-gated inwardly rectifying potassium channel KCNH2 (Q12809 whole entry): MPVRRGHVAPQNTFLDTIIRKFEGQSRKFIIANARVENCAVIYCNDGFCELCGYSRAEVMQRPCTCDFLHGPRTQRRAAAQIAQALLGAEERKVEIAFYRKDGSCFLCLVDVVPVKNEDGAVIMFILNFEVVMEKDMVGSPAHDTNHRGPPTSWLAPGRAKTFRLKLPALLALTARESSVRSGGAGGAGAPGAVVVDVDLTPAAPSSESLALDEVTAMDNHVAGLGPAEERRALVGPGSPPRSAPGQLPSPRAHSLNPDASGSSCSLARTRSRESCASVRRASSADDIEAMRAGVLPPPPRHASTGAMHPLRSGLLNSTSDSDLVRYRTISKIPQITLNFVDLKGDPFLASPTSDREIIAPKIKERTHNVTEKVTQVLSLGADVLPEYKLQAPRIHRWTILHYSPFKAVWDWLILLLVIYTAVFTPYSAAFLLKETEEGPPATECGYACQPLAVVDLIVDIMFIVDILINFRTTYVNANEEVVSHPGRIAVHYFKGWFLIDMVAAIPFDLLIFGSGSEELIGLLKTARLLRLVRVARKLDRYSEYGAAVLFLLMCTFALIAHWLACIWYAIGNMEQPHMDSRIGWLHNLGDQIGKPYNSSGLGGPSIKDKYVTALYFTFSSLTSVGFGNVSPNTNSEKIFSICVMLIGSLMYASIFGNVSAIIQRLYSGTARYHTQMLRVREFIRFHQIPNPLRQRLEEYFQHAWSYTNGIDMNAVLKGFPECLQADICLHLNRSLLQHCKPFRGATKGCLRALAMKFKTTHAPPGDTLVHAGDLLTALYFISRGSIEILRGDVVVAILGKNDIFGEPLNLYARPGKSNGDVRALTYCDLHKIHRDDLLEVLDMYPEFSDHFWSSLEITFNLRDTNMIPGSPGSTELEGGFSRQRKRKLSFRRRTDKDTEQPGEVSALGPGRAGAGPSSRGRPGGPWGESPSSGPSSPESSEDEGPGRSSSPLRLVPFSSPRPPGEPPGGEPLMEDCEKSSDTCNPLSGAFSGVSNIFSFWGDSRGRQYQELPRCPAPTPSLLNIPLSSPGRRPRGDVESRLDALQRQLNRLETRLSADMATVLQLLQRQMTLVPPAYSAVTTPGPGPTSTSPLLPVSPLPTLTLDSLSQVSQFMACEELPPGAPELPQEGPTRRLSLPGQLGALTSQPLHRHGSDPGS

[10] = Cmax in Sprague-Dawley rat at 100 mg/kg, po using 1% methyl cellulose as vehicle; format: ADME, organism-based; design: dose 100 mg/kg, route oral; details: in vivo
[11] = Inhibition of human DNA polymerase alpha
[12] = Primary phase half life in dog at 5 mg/kg, iv; format: ADME, organism-based, Canis lupus familiaris; design: dose 5 mg/kg, route intravenous; details: in vivo, read-out: alphat1/2 (converted)
Cytochrome P450 2D6 = Cytochrome P450 2D6 (Homo sapiens, UniProt P10635); experiment: Inhibition of CYP2D6; format: ADME
Chain of Cytochrome P450 2D6 (P10635 whole entry): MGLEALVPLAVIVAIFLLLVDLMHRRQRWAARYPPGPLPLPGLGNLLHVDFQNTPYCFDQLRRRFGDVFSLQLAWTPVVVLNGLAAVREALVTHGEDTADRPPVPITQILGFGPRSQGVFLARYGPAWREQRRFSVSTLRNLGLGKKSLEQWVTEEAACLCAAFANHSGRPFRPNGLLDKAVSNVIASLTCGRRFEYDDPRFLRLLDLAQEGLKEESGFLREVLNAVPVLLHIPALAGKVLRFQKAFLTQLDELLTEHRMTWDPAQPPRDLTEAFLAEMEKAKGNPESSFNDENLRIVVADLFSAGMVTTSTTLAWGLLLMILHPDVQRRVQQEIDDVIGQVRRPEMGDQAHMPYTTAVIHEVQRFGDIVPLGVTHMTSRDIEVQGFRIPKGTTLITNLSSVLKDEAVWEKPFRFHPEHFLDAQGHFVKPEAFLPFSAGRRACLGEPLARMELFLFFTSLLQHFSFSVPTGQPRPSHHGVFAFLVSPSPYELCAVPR

[13] = system: Human immunodeficiency virus 1; experiment: Antiviral activity against HIV1 3B in human MT4 cells in presence of 50% normal human serum; format: functional; details: read-out: CIC95
[14] = target: Human immunodeficiency virus type 1 integrase (Human immunodeficiency virus 1, UniProt Q7ZJM1); experiment: Inhibition of HIV1 recombinant integrase strand transfer activity
Chain of Human immunodeficiency virus type 1 integrase (Q7ZJM1 whole entry): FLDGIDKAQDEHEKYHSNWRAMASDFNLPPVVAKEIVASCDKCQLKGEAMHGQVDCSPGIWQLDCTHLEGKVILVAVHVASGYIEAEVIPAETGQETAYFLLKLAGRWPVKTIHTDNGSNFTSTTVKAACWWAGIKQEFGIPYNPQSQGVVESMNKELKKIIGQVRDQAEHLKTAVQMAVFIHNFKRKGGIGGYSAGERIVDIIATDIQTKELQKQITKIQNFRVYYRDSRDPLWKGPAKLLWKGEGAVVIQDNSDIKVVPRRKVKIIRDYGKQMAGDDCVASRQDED

[15] = AUC in dog at 10 mg/kg, po; format: ADME, organism-based, Canis lupus familiaris; design: dose 10 mg/kg, route oral; details: plasma
[16] = Terminal half life in po dosed rhesus monkey; format: ADME, organism-based, Macaca mulatta; details: in vivo, read-out: beta t1/2 (converted)
[17] = system: Human immunodeficiency virus 1; experiment: Antiviral activity against HIV1 with integrase T66I/S153Y mutation by single cycle infectivity assay in presence of 10%FBS; format: functional
[18] = Cmax in rhesus monkey at 10 mg/kg, po; format: ADME, organism-based, Macaca mulatta; design: dose 10 mg/kg, route oral; details: in vivo
Cytochrome P450 3A4 = Cytochrome P450 3A4 (Homo sapiens, UniProt P08684); experiment: Inhibition of CYP3A4; format: ADME
Chain of Cytochrome P450 3A4 (P08684 whole entry): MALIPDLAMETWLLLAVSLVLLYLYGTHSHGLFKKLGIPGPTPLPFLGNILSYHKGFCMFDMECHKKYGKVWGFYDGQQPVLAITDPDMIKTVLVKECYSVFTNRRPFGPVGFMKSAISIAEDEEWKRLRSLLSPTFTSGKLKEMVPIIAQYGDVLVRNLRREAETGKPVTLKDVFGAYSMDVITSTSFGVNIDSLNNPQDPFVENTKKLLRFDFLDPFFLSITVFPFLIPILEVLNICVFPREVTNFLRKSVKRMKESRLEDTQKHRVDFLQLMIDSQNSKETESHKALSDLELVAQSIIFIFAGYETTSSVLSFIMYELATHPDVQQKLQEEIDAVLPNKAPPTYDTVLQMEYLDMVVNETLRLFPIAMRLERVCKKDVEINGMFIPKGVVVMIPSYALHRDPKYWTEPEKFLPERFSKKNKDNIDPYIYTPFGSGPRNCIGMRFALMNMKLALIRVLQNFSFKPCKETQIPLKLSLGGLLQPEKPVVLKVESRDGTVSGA

[19] = Terminal half life in po dosed Sprague-Dawley rat; format: ADME, organism-based; details: in vivo
[20] = system: Human immunodeficiency virus 1; experiment: Antiviral activity against HIV1 with integrase T66I/L74M/V151I mutation by single cycle infectivity assay in presence of 10%FBS; format: functional
[21] = Inhibition of human DNA polymerase gamma
[22] = Cmax in Sprague-Dawley rat at 100 mg/kg, po using PEG400 as vehicle; format: ADME, organism-based; design: dose 100 mg/kg, route oral; details: in vivo
[23] = Terminal half life in dog at 10 mg/kg, po; format: ADME, organism-based, Canis lupus familiaris; design: dose 10 mg/kg, route oral; details: in vivo, read-out: beta t1/2 (converted)
[24] = AUC in rhesus monkey at 10 mg/kg, po; format: ADME, organism-based, Macaca mulatta; design: dose 10 mg/kg, route oral; details: plasma
[25] = Primary phase half life in rhesus monkey at 1 mg/kg, iv; format: ADME, organism-based, Macaca mulatta; design: dose 1 mg/kg, route intravenous; details: in vivo, read-out: alphat1/2 (converted)
[26] = Volume of distribution in rhesus monkey at 1 mg/kg, iv; details: in vivo
[27] = AUC in Sprague-Dawley rat at 100 mg/kg, po using PEG400 as vehicle; format: ADME, organism-based; design: dose 100 mg/kg, route oral; details: plasma
[28] = Cmax in dog at 10 mg/kg, po; format: ADME, organism-based, Canis lupus familiaris; design: dose 10 mg/kg, route oral; details: in vivo
[29] = Volume of distribution in Sprague-Dawley rat at 3 mg/kg, iv; format: ADME, organism-based; design: dose 3 mg/kg, route intravenous; details: in vivo
[30] = Inhibition of HIV ribonuclease H; design: species or system Human immunodeficiency virus
[31] = Primary phase half life in Sprague-Dawley rat at 3 mg/kg, iv; format: ADME, organism-based; design: dose 3 mg/kg, route intravenous; details: in vivo, read-out: alphat1/2 (converted)
[32] = Plasma clearance in dog at 5 mg/kg, iv; format: ADME, organism-based, Canis lupus familiaris; design: dose 5 mg/kg, route intravenous
Cytochrome P450 1A2 = target: T1, Cytochrome P450 1A2 (Homo sapiens, UniProt P05177); experiment: Inhibition of CYP1A2; format: ADME
T1 sequence (P05177 whole entry): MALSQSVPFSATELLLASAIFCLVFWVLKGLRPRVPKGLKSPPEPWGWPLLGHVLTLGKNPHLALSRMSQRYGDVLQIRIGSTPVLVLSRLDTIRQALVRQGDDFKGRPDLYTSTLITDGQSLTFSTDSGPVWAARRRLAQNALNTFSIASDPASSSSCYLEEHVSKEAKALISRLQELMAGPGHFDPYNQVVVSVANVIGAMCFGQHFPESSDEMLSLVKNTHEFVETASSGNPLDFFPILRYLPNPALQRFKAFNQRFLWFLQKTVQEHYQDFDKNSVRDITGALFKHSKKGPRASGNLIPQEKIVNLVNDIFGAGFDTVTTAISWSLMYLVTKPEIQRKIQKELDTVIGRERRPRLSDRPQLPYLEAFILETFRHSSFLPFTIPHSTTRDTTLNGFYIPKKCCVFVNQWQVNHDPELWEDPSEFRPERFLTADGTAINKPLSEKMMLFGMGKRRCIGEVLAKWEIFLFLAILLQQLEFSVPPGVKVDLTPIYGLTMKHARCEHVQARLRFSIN

[33] = Plasma clearance in rhesus monkey at 1 mg/kg, iv; format: ADME, organism-based, Macaca mulatta; design: dose 1 mg/kg, route intravenous
[34] = Inhibition of HCV polymerase; design: species or system Hepacivirus hominis
[35] = Cmax in Sprague-Dawley rat at 3 mg/kg, po; format: ADME, organism-based; design: dose 3 mg/kg, route oral; details: in vivo
[36] = Terminal half life in dog at 5 mg/kg, iv; format: ADME, organism-based, Canis lupus familiaris; design: dose 5 mg/kg, route intravenous; details: in vivo, read-out: beta t1/2 (converted)
DNA polymerase beta = DNA polymerase beta (Homo sapiens, UniProt P06746); experiment: Inhibition of human DNA polymerase beta
[37] = AUC in Sprague-Dawley rat at 3 mg/kg, po; format: ADME, organism-based; design: dose 3 mg/kg, route oral; details: plasma
[38] = Volume of distribution in dog at 5 mg/kg, iv; format: ADME, organism-based, Canis lupus familiaris; design: dose 5 mg/kg, route intravenous; details: in vivo
[39] = Terminal half life in rhesus monkey at 1 mg/kg, iv; format: ADME, organism-based, Macaca mulatta; design: dose 1 mg/kg, route intravenous; details: in vivo, read-out: beta t1/2 (converted)
[40] = Oral bioavailability in po dosed rhesus monkey; format: ADME, organism-based, Macaca mulatta; details: in vivo
Liver microsomes [41] = experiment: Metabolic stability in Sprague-Dawley rat liver microsomes; format: ADME, Microsome
[42] = Metabolic stability in dog liver microsomes; format: ADME, Canis lupus familiaris, Microsome
Liver microsomes [43] = experiment: Metabolic stability in human liver microsomes; format: ADME, Microsome
[44] = Metabolic stability in Sprague-Dawley rat bile; format: ADME
[45] = Metabolic stability in po dosed dog bile; format: ADME, organism-based, Canis lupus familiaris; details: in vivo
[46] = Metabolic stability in rhesus monkey liver microsomes; format: ADME, Macaca mulatta, Microsome
[47] = Metabolic stability in iv dosed Sprague-Dawley rat bile assessed as drug recovery; format: ADME, organism-based; details: read-out: Drug uptake
[48] = Metabolic stability in iv dosed dog urine assessed as drug recovery after 0 to 24 hrs; format: ADME, organism-based, Canis lupus familiaris; details: read-out: Drug uptake
[49] = Metabolic stability in iv dosed dog urine assessed as raltegravir-glucuronide recovery; format: ADME, organism-based, Canis lupus familiaris; details: in vivo
[50] = Metabolic stability in iv dosed Sprague-Dawley rat urine assessed as raltegravir-glucuronide recovery; format: ADME, organism-based; details: in vivo
[51] = Metabolic stability in iv dosed dog urine assessed as drug recovery; format: ADME, organism-based, Canis lupus familiaris; details: read-out: Drug uptake
[52] = Metabolic stability in iv dosed Sprague-Dawley rat urine assessed as drug recovery; format: ADME, organism-based; details: read-out: Drug uptake
[53] = Metabolic stability in iv dosed Sprague-Dawley rat bile assessed as raltegravir-glucuronide recovery; format: ADME, organism-based; details: in vivo
[54] = Oral bioavailability in po dosed Sprague-Dawley rat; format: ADME, organism-based; details: in vivo
[55] = Plasma concentration in dog at 2 mg/kg, po after 12 hrs; format: ADME, organism-based, Canis lupus familiaris; design: dose 2 mg/kg, route oral
[56] = AUC in dog at 2 mg/kg, po; format: ADME, organism-based, Canis lupus familiaris; design: dose 2 mg/kg, route oral; details: plasma
[57] = Cmax in dog at 2 mg/kg, po; format: ADME, organism-based, Canis lupus familiaris; design: dose 2 mg/kg, route oral; details: in vivo
[58] = Cmax in po dosed Sprague-Dawley rat; format: ADME, organism-based; design: route oral; details: in vivo
[59] = Oral bioavailability in po dosed dog; format: ADME, organism-based, Canis lupus familiaris; details: in vivo
[60] = Plasma concentration in dog at 10 mg/kg, po after 12 hrs; format: ADME, organism-based, Canis lupus familiaris; design: dose 10 mg/kg, route oral

CN(C)C(=O)C(=O)NC(C)(C)c1nc(C(=O)NCc2ccc(F)cc2)c(O)c(=O)n1C
half-life [1]: 6 h | Activity [2]: 40% | Activity [3]: 19% | IC95 [4]: 0.045 µM | clearance [5]: 1200 mL/h/kg | IC50 [6]: > 50 µM | AUC [7]: 23 µM·h | IC50 (Cytochrome P450 2C9): > 50 µM | Activity [8]: 5% | IC50 [9]: > 50 µM | Cmax [10]: 12 µM | IC50 [11]: > 50 µM | half-life [12]: 1.2 h | IC50 (Cytochrome P450 2D6): > 50 µM | IC95 ([13]; Human immunodeficiency virus 1, 3B, MT4): 0.074 µM | IC50 [14]: 0.01 µM | AUC [15]: 23 µM·h | half-life [16]: 1.9 h | Activity [17]: 8% | Cmax [18]: 4.5 µM | IC50 (Cytochrome P450 3A4): > 50 µM | half-life [19]: 0.9 h | Activity [20]: 35% | IC50 [21]: > 50 µM | Cmax [22]: 31 µM | half-life [23]: 4.9 h | AUC [24]: 5.2 µM·h | half-life [25]: 0.9 h | Vd [26]: 2.9 L/kg | AUC [27]: 49 µM·h | Cmax [28]: 11 µM | Vd [29]: 1.3 L/kg | IC50 [30]: > 50 µM | half-life [31]: 0.4 h | clearance [32]: 660 mL/h/kg | IC50 (Cytochrome P450 1A2): > 50 µM | clearance [33]: 840 mL/h/kg | IC50 [34]: > 50 µM | Cmax [35]: 0.6 µM | half-life [36]: 16 h | IC50 (DNA polymerase beta): > 50 µM | AUC [37]: 0.7 µM·h | Vd [38]: 1.1 L/kg | half-life [39]: 3 h | bioavailability [40]: 24%

CN(C)C(=O)C(=O)NC(C)(C)c1nc(C(=O)NCc2ccc([19F])cc2)c(O)c(=O)n1C
Stability (Liver microsomes [41]): 1.2 mL/h/kg | Stability [42]: 0.18 mL/h/kg | Stability (Liver microsomes [43]): 0.48 mL/h/kg | Activity [44]: 5% | Activity [45]: 13% | Stability [46]: 2.76 mL/h/kg

Cc1nnc(C(=O)NC(C)(C)c2nc(C(=O)NCc3ccc([19F])cc3)c(O)c(=O)n2C)o1
Stability (Liver microsomes [41]): 2.04 mL/h/kg | dose excreted [47]: 10% | Stability [42]: 0.12 mL/h/kg | Stability (Liver microsomes [43]): 0.54 mL/h/kg | dose excreted [48]: 30% | Drug uptake [49]: 35% | Drug uptake [50]: 90% | dose excreted [51]: 65% | dose excreted [52]: 10% | Drug uptake [53]: 90% | Stability [46]: 2.16 mL/h/kg

Cc1nnc(C(=O)NC(C)(C)c2nc(C(=O)NCc3ccc(F)cc3)c([O-])c(=O)n2C)o1.[K+] [RALTEGRAVIR POTASSIUM]
bioavailability [54]: 45% | concentration at 12 h [55]: 0.16 µM | AUC [56]: 11 µM·h | Cmax [57]: 4.6 µM | IC95 [13]: 0.031 µM | Cmax [58]: 1.6 µM | half-life [19]: 7.5 h | half-life [23]: 13 h | Cmax [28]: 24 µM | bioavailability [59]: 69% | AUC [37]: 1.3 µM·h | concentration at 12 h [60]: 0.35 µM
